According to ChEMBL document CHEMBL5247656, “Discovery of a Potent, Cooperative, and Selective SOS1 PROTAC ZZ151 with In Vivo Antitumor Efficacy in KRAS-Mutant Cancers” (J Med Chem, 2023):
Activity calls are given as the source filed them. The rule behind the calls is not given here.

What was measured:
[1] = molecular target: T1, Son of sevenless homolog 1 (Homo sapiens, UniProt Q07889); assay: Binding affinity to GST-tagged human SOS1 (564 to 1049 residues) expressed in Escherichia coli BL21 (DE3) cells assessed as ternary complex formation by measuring dissociation constant incubated for 15 mins in the presence of 6His tagged human VCB by fluorescence polarization-based displacement assay
T1 sequence (Q07889 whole entry): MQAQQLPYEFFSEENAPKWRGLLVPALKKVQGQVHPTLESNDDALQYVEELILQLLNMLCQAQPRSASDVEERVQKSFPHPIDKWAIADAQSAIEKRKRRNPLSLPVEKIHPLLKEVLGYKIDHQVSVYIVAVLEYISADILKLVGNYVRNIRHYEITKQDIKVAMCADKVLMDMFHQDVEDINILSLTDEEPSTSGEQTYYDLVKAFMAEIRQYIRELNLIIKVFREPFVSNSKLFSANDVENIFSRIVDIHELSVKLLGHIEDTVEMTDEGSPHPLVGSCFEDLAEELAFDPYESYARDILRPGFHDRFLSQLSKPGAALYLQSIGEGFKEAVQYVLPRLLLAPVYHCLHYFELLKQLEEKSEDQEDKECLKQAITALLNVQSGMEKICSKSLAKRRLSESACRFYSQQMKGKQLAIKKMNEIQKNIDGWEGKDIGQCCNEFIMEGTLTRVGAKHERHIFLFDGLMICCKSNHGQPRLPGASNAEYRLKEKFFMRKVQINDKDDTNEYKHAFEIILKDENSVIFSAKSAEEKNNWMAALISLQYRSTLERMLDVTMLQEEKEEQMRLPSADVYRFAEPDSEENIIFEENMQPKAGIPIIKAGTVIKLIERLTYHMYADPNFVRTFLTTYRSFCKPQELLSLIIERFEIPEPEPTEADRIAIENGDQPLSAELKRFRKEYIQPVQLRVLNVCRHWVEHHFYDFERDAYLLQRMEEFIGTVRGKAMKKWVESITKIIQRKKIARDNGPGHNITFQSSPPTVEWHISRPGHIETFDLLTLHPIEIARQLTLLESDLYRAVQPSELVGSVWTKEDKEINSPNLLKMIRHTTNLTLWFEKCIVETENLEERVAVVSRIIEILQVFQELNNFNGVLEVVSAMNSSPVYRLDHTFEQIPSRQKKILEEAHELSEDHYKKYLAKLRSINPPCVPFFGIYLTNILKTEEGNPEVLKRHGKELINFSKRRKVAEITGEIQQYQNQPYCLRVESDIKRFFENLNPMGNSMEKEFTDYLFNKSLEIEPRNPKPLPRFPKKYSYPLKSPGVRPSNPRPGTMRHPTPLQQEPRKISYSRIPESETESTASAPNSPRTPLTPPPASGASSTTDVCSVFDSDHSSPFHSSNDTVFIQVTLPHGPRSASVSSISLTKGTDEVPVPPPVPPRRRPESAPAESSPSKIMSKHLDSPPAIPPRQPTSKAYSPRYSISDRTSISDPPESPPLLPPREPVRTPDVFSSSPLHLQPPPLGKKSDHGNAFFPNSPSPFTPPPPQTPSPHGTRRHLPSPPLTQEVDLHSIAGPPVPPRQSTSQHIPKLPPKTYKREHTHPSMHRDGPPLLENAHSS

[2] = molecular target: T2, von Hippel-Lindau disease tumor suppressor/Son of sevenless homolog 1 (Homo sapiens) (UniProt Q07889+P40337); assay: PROTAC activity at VHL/SOS1 in human NCI-H358 cells harboring KRAS G12C mutant with shRNA lentivirus mediated VHL knockdown assessed as induction of SOS1 degradation at 1 uM incubated for 24 hrs by Immunoblot analysis; format: cell-based
T2 sequence (P40337 whole entry, looked up, one chain of several): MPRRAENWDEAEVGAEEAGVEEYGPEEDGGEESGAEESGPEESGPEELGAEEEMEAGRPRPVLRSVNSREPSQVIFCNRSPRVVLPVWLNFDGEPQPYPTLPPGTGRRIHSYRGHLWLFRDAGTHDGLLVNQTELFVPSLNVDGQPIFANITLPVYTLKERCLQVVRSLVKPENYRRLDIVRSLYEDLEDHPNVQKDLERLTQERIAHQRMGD

[3] = molecular target: T2, von Hippel-Lindau disease tumor suppressor/Son of sevenless homolog 1 (Homo sapiens); assay: PROTAC activity at VHL/SOS1 in human MIA PaCa-2 cells harboring KRAS G12C mutant assessed as induction of SOS1 degradation by measuring maximal efficacy at 1 to 2000 nM incubated for 24 hrs by Immunoblot analysis relative to control; format: cell-based; conditions: dose 1-2000 nM
[4] = molecular target: T2, von Hippel-Lindau disease tumor suppressor/Son of sevenless homolog 1 (Homo sapiens); assay: PROTAC activity at VHL/SOS1 in human SNU-C2B cells harboring KRAS G12D mutant assessed as induction of SOS1 degradation by measuring maximal efficacy at 1 to 2000 nM incubated for 24 hrs by Immunoblot analysis relative to control; format: cell-based; conditions: dose 1-2000 nM
[5] = molecular target: T2, von Hippel-Lindau disease tumor suppressor/Son of sevenless homolog 1 (Homo sapiens); assay: PROTAC activity at VHL/SOS1 in human ASPC1 cells harboring KRAS G12D mutant assessed as induction of SOS1 degradation by measuring maximal efficacy at 1 to 2000 nM incubated for 24 hrs by Immunoblot analysis relative to control; format: cell-based; conditions: dose 1-2000 nM
[6] = molecular target: T2, von Hippel-Lindau disease tumor suppressor/Son of sevenless homolog 1 (Homo sapiens); assay: PROTAC activity at VHL/SOS1 in human SW480 cells harboring KRAS G12V mutant assessed as induction of SOS1 degradation by measuring maximal efficacy at 1 to 2000 nM incubated for 24 hrs by Immunoblot analysis relative to control; format: cell-based; conditions: dose 1-2000 nM
[7] = molecular target: T2, von Hippel-Lindau disease tumor suppressor/Son of sevenless homolog 1 (Homo sapiens); assay: PROTAC activity at VHL/SOS1 in human SW620 cells harboring KRAS G12V mutant assessed as induction of SOS1 degradation by measuring maximal efficacy at 1 to 2000 nM incubated for 24 hrs by Immunoblot analysis relative to control; format: cell-based; conditions: dose 1-2000 nM
[8] = molecular target: T3, Son of sevenless homolog 1 (Homo sapiens) (UniProt Q07889); assay: Induction of SOS1 degradation in human ASPC1 cells at 1 uM incubated for 6 hrs by quantitative proteomics analysis; format: cell-based
T3 sequence (whole entry): T1 sequence (Q07889 whole entry)

ASPC1 = assay: Downregulation of ZCCHC10 in human ASPC1 cells at 1 uM incubated for 6 hrs by quantitative proteomics analysis; format: functional, cell-based
[9] = Acute toxicity in BALB/c mouse assessed as body weight loss at 12.5 to 100 mg/kg, ip administered once daily for 7 days; format: organism-based; conditions: in vivo, 168 h, dose 12.5-100 mg/kg, time 7 day
SW-620 = assay: Antitumor activity against human SW620 cells harboring KRAS G12V mutant xenografted in BALB/c nude mouse assessed as tumor growth inhibition at 20 mg/kg, ip administered once daily for 2 weeks relative to control; format: functional; conditions: SW-620, 336 h, read-out: TGI
[10] = Toxicity in BALB/c nude mouse xenografted with human SW620 cells harboring KRAS G12V mutant assessed as body weight loss at 10 to 20 mg/kg, ip administered once daily for 2 weeks; format: organism-based, SW-620; conditions: in vivo, 336 h, dose 10-20 mg/kg
[11] = molecular target: T2, von Hippel-Lindau disease tumor suppressor/Son of sevenless homolog 1 (Homo sapiens); assay: In vivo PROTAC activity at VHL/SOS1 in human ASPC1 cells harboring KRAS G12D mutant xenografted BALB/c nude mouse assessed as induction of SOS1 degradation administered intraperitoneally once daily for 3 weeks by Immunoblot analysis; format: functional; conditions: dose 10-20 mg/kg, route ip
[12] = molecular target: T2, von Hippel-Lindau disease tumor suppressor/Son of sevenless homolog 1 (Homo sapiens); assay: In vivo PROTAC activity at VHL/SOS1 in human ASPC1 cells harboring KRAS G12D mutant xenografted BALB/c nude mouse assessed as decrease in phosphorylated ERK expression at 10 to 20 mg/kg, ip administered once daily for 3 weeks by immunohistochemistry analysis; format: functional, organism-based; conditions: dose 10-20 mg/kg
[13] = molecular target: T2, von Hippel-Lindau disease tumor suppressor/Son of sevenless homolog 1 (Homo sapiens); assay: In vivo PROTAC activity at VHL/SOS1 in human SW620 cells harboring KRAS G12V mutant xenografted BALB/c nude mouse assessed as induction of SOS1 degradation at 10 to 20 mg/kg, ip administered once daily for 2 weeks by Immunoblot analysis; format: functional, organism-based; conditions: SW-620, dose 10-20 mg/kg

In the case of `COc1cc2nc(C)nc(N[C@H](C)c3cc(N)cc(C(F)(F)F)c3)c2cc1C1CCN(C(=O)CCCCCC(=O)N[C@H](C(=O)N2C[C@H](O)C[C@H]2C(=O)N[C@@H](C)c2ccc(-c3scnc3C)cc2)C(C)(C)C)CC1`, the Kd [1] is reported as 8.13 nM, the Activity [2] is reported as “inactive” and the Emax [3] is reported as > 95%. The Emax [4] was > 95%, the Emax [5] was > 95% and the Emax [6] was > 95%. For the same compound, the Emax [7] was > 95%, the Activity [8] was “Active” and the Activity (ASPC1) was “Active”. For the same compound, the Activity [9] was “Non-Toxic”, the inhibition in vivo at 20 mg/kg (SW-620) was 65.4% and the Activity [10] was “Non-Toxic”. For the same compound, the Activity [11] was “Dose-Dependent Effect”, the Activity [12] was “Active” and the Activity [13] was “Active”.
